From patent publication US12653903B2, “Nanoparticle and use thereof for the combinatorial therapy of endoplasmic reticulum stress inducer and immunotherapeutic to tumors and immune cells” (National Yang Ming Chiao Tung University, priority 2023, dated 2026)

Test system: Panc-02 cells
Details: concentration used as equivalent CB dose
Method: Panc-02 cells or NIT-cells were seeded in 96-well plates. Cells were treated with various miR or CB-loaded SLNs formulations. TCA was used to fix the cells after treatment. The wells were then stained with sulforhodamine B (SRB) and rapidly rinsed with acetic acid. Following air drying. Tris base was added to each well, and the plates were examined using an ELISA reader. Cell viability (%)=(The absorbance value of treated cells)(The absorbance value of untreated cells)×100

For Cc1cc2c(C(N)=O)cccc2n1-c1nc2c(c(NCc3ccccc3)n1)COCC2 [CB, CB-5083], the IC30 was 210 nM.
